Results taken from patent US20010044102A1, “ASSAYS AND REAGENTS FOR IDENTIFYING MODULATORS OF CDC25-MEDIATED MITOTIC ACTIVATION” (priority 1996, published 2001).

How the values were obtained:
cdc25 = details: cited from earlier work
Val 5 cells = assay: Myc-driven apoptosis and DNA replication in MycER cells treated with cdc25A antisense oligonucleotide, scored by TUNEL; format: cell-based; details: MycER induced by β-estradiol, 0.1% serum, shift from 39 to 32° C., FIG. 5B
Experimental: Finally, to investigate whether induction of the cdc25A gene is essential for Myc-driven apoptosis, we incubated Val 5 cells after MycER induction by β-estradiol with an antisense cdc25A oligonucleotide. Following this incubation, cells were shifted from 39 to 32° C., activating wild type p53 function, which normally results in apoptosis (Wagner et al. (1994) Genes Dev. 8:2817-2830). A scrambled oligonucleotide with the same nucleotide content was used in control experiments. We observed that both apoptosis and DNA replication was inhibited by the treatment with the antisense, but not with scrambled (control) oligonucleotides (FIG. 5B).
Human cdc25A, B and C under control of CMV promoter and pCMV CD20 has been described (Galaktionov et al. (1995) Science 269:1575-1577). […] Apoptotic figures were scored 24 hours later upon microscopic investigation of the cultures based on CD20 staining, indicative of successful transfection (more than 2%, usually 8-10%), and visible morphological changes indicative of cell death (membrane blebbing, chromatin condensation, etc.). […] 48 hours after shifting to 0.1% serum, MycER fusion protein was induced by the addition of β-estradiol and cell incubation continued for another 24 hours, at which point cells were photographed and apoptosis was scored by TUNEL.

| Molecule | cdc25 inhibitor (previously described in the literature) (cdc25) | DNA replication (Val 5 cells) |
| --- | --- | --- |
| CN1C2CC3C1C1C(C4=C(C(=O)C(N)=CC4=O)C(CO)N1C2C#N)N1CCOC31 (stereo not drawn) [dnacin A1] | cdc25 inhibitors | – |
| CN1C2CC3C1C1C(C4=C(C(=O)C(N)=CC4=O)C(CO)N1C2O)N1CCOC31 (stereo not drawn) [dnacin B1] | cdc25 inhibitors | – |
| scrambled oligonucleotide: scrambled oligonucleotide (GGTACCTTGACCCGGGCTCG) with the same nucleotide content, used as control (chemistry not given here) | – | not |
